From US20060094071A1 (priority 2002, published 2006)
Where no end group is shown, it is not given here. The star is where a group is joined. Propionyl = CCC(=O)*

Legend:
PrP^Sc [1] = target: T1, PrP^Sc (Bos taurus, UniProt P10279); type: binding, cattle
PrP^Sc [2] = target: T1, PrP^Sc; type: binding, cattle; conditions: pH 3
PrP^Sc [3] = system: PrP^Sc

| Substance | PrP^Sc binding efficiency (relative) (PrP^Sc [1]) | Elution efficiency (PrP^Sc [2]) | Extinction at 450 nm, BSE-positive versus BSE-negative animals (PrP^Sc [3]) |
| --- | --- | --- | --- |
| Arg-Val-Val-Ile-Ala [Peptide 1] | 54.7% | – | – |
| Gly-Val-Val-Ile-Ala [Peptide 6] | 64.5% | – | – |
| Leu-Pro-Phe-Phe-Asp (LPFFD; beta-sheet binding peptide) [Peptide 3] | 46.6% | – | – |
| Lys-Leu-Val-Phe-Phe [Peptide 2] | 100.0% | remained almost completely bound | significantly (t-test) raised |
| Propionyl-DArg-DArg-DA1a-DPhe-DPhe-DVal-amide [Peptide 7] | 76.5% | – | – |
| Propionyl-IIGL [Peptide 4] | 55.1% | – | – |
| Propionyl-RIIGL [Peptide 5] | 58.1% | – | – |
